Reference: patent publication US8586557B2, “Therapy of p53 mutant colon adenocarcinoma, breast cancer and lung cancer” (Peter MacCallum Cancer Institute, priority 2009, dated 2013)

Experiments:
Type in all cases: cell-based, human
[1] = tested on: H1299 cells expressing exogenous mutant p53^175; assay: Cell cycle analysis and flow cytometry; conditions: H1299 bearing mutant p53^175
Description: (§1) To ascertain the influence of PML levels on the proliferation of HT29 human cancer cells, they were subjected initially to metabolic evaluation using an MTT assay and cell cycle analysis using BrdUrd incorporation. […] This reduction was consistent with the reduced growth rate, but cannot explain the marked difference in cell numbers. It is important to clarify that because the MTT assay involved plating cells of equal number 24 hours in advance of each assay time point, there was continual selection for live cells, which is likely to have masked the accrued effects detected with longer-term plating for the flow cytometric analysis and the colony assay. […] To further substantiate the mutant p53 dependence of cell cycle perturbation induced through PML knockdown, H1299 cells either without, or bearing mutant p53^175, were subjected to cell cycle analysis and flow cytometry (FIG. 10).

p53 null H1299 cells = assay: Cell cycle analysis and flow cytometry
Description: as §1

Cdc25C promoter = assay: Luciferase reporter assay pCCAAT-cdc25CLUC in SKBR3; conditions: SKBR3, adriamycin 0.5 μg/ml
Description: (§2) For LacZi-SKBR3 and PML3i-SKBR3, cells (1.5×10^5) were transiently transfected with expression plasmids, reporter constructs, and 0.51 μg of CMV β-galactosidase plasmid (pcDNA3-β-gal vector) as an internal control for transfection efficiency. Precipitates were removed and cells were treated with 0.5 μg/ml ADR for 48 hr. Luciferase activity was assayed on whole-cell extract, as described (Manni et al.). The luciferase values were normalized to β-galactosidase activity and protein content.
(§3) In addition, the effect of PML down-regulation on the transcription of the mutant p53 targets cyclin B2 and Cdc25C, in response to genotoxic stress, was examined in the endogenous mutant p53^175 background of SKBR3 cells. SKBR3 cells were transfected with either PML3i (SEQ ID No: 3) or shp53 (GACTCCAGTGGTAATCTA; SEQ ID No: 10), and luciferase reporter constructs for either Cyclin B2 or Cdc25c. After 24 hours, the cells were exposed to adriamycin (0.5 μg/ml). Down regulation of p53 suppressed the induction of both promoters (FIG. 6B(i) and (ii), respectively). […] The suppression of endogenous cyclin B2 and Cdc25C in response to either p53 or PML down-regulation, under the influence of Adriamycin, was also confirmed at the RNA level by RT-PCR (FIG. 6C).

Cdc25C RNA = assay: RT-PCR of endogenous mutant p53 target in SKBR3; conditions: SKBR3, under Adriamycin
Text: (§4) Cellular RNA was isolated by Tri-Reagent (MRC Inc.; Cincinnati, Ohio, USA) using the manufacture's instructions, DNA was removed from the samples using DNase treatment (DNA-free kit, Ambion Applied Biosystems; Foster City, Calif., USA), cDNA was synthesized from the purified RNA using M-MLV Reveres Transcription kit (Promega, Madison, Wis., USA). Primers for ribosomal 18S were forward: […] (SEQ ID No: 6); and reverse: […] (SEQ ID No: 7). Primers for PML were forward: CGCCCTGGATAACGTCTTT (SEQ ID No: 8) and reverse: ACTGTGGCTGCTGTCAAGG (SEQ ID No: 9).
as §3

cyclin B2 RNA = assay: RT-PCR of endogenous mutant p53 target in SKBR3; conditions: SKBR3, under Adriamycin
Text: as §4, §3

Cyclin B2 promoter = assay: Luciferase reporter assay pCCAAT-B2LUC in SKBR3; conditions: SKBR3, adriamycin 0.5 μg/ml
Description: as §2, §3

PML transcript = assay: RT-PCR of PML transcript after shRNA knock-down
Text: as §4

SW480 cells [2] = assay: Colony formation assay; conditions: SW840 as printed, doxycycline-induced PML knockdown for 21 d
Description: (§5) Cancer cell lines were plated (700 per well) in 5 cm diameter dishes in the absence or presence of tetracycline (0.2 μg/ml added every second day) for 21 days. At harvest the cells were fixed in ethanol and stained in 0.1% crystal violet.

HT29 cells [3] = assay: Colony formation assay; conditions: HT29, doxycycline-induced PML knockdown for 21 d
Description: as §5

PML = assay: Western blot of PML knock-down by shRNA
Text: Cell lines in which PML was inducibly knocked-down were generated by co-infection with a lentivirus (pLVTHM) expressing the short hairpin RNA (shRNA) PML target sequence GACCAACAACATCTTCTGC (shPML1; SEQ ID No: 1) or AGATGCAGCTGTATCCAAG (shPML2; SEQ ID No: 2; Tavalai et al.) and a lentivirus expressing a tetracycline repressor (pLV-Ttrkrab-Red). Control cell lines with shLacZ and relevant wobble shPML control sequences GACCAACAATATATTCTGC (w-shPML1; SEQ ID No: 4) and AGATGCAGCTGTATCCAAG (w-shPML2; SEQ ID No: 5) were also generated under the control of a tetracycline repressor. PMLi to target sequence GAGTCGGCCGACTTCTGGT (SEQ ID No: 3; Bruno et al), referred to subsequently as PML3i was transfected into SKBR3 cells using Lipofectamine™ 2000 (Invitrogen Corporation, Carlsbad, Calif. 92008 USA), according to the manufacturer's instructions.
(§6) Western blot analysis and immunoprecipitation assays were carried out as previously described (Louria-Hayon et al.). The antibodies used in this study were: anti-human p53 monoclonal antibodies PAb1801 and D01, anti-phospho-p53 Thr^18 polyclonal antibody (Saito et al.), anti-phospho-p53 Ser^20 polyclonal antibody (Cell Signaling Technology, Beverly, Mass., USA); anti-PML monoclonal antibody (clone PML-97; Sigma Chemical Co., St Louis, Mo., USA), anti-GFP (Roche Applied Science, Mannheim, Germany), HRP-conjugated goat anti-mouse IgG, Envision peroxidase anti-mouse or anti-rabbit (Dako Corp., Glostrup, Denmark). The antibodies anti-p53 goat polyclonal antibody (FL-393, AC), anti-p53 rabbit polyclonal antibody (FL-393, FC) and anti-PML polyclonal rabbit antibody ((H-238) sc-5621) were from Santa Cruz Biotechnology, Santa Cruz, Calif., USA.

SW480 cells [4] = assay: Flow cytometry of live/dead cells by propidium iodide exclusion
Description: (§7) Cells were cultured in the absence or presence of doxycyclin (0.2 μg/ml added every second day) for three days then 25,000 cells were plated (with doxycyclin maintainance in culture for continued shRNA induction) and harvested at selected time points. Cells adherent to the plate were released with trypsin-EDTA and combined with those suspended in the culture supernatant prior to flow cytometric analysis of live cell numbers, as discriminated by propidium iodide exclusion using a cell sorter (FACSCalibur) harnessed to CellQuest software (BD Biosciences; San Jose, Calif., USA).

HT29 cells [5] = assay: as above
Description: as §7

HT29 cells [6] = assay: MTT metabolic assay; conditions: HT29, 3, 4 and 11 days of doxycycline exposure, compared with control w-shPML1
Description: Cells either untreated or treated with doxycyclin (0.2 μg/ml) to knock down PML were plated 4000 per well in a 96 well plate and allowed to recover for 24 h. 3-(4,5-Dimethylthiazolyl-2)-2,5-diphenyltetrazolium bromide (MTT, […] final concentration) was added to the wells and the experiment was terminated after an additional 4 h incubation, by aspiration of the liquid and addition of 200 μl of DMSO. The absorbance was read at 540 nm, relative to a reference wavelength of 630 nm (Mosmann et al.).

HT29 cells [7] = assay: Cell cycle analysis by BrdUrd incorporation; conditions: for relative number of cells cycling through the S-phase: versus parental line
Description: Cells were plated 2×10^6/10 cm dish and allowed to recover 24 h. BRDU was incorporated (20 μM, 4 h), prior to cell harvest with trypsin-EDTA and fixation in 70% methanol, −20° C. overnight. BRDU detection was undertaken subsequent to sequential rehydration in HCl(2N)/Triton-X(0.5%) then incubation in Boric acid (0.1M), anti-DRDU FITC antibody (BD Biosciences; San Jose, Calif., USA) in PBS/BSA(1%)/Triton-X(0.5%). DNA was labeled using propidium iodide 0.5 mg/ml and incorporation was analyzed using the FACs calibur (BD Biosciences; San Jose, Calif., USA)

[8] = tested on: p53 Thr18 phosphorylation; assay: Immunoblot of IR-induced p53 Thr18 phosphorylation in NB4 cells; conditions: As2O3 1 μM 4 h, γ-IR 5Gy
Description: as §6
The inventors have previously shown that PML facilitates the phosphorylation of wt p53 at Ser^20 by check-point kinase 2 (Chk2; Louria-Hayon et al.) and Thr^18 by CK1 (Alsheich-Bartok et al.). These observations raised the surprising possibility that PML may also facilitate the phosphorylation of mutant p53.

SKBR3 cells = assay: Trypan blue dye exclusion after Adriamycin exposure; conditions: SKBR3, Adriamycin 0.5 μg/mL 24 h
Description: Expression of certain p53 mutants confers cells with some resistance to genotoxic stress (Strano et al.). It was therefore important to define whether PML contributes to this biological effect of mutant p53. To this end PML expression was down regulated in SKBR3 cells and cells were exposed to 0.5 μg/ml Adriamycin for 24 h. The effect on cell survival was determined by Trypan blue dye exclusion. Down regulation of PML reduced the numbers of live cells (FIG. 6A(i)), whereas no significant increase in cell death was identified (FIG. 6A(ii)).

[9] = HT29, 3 days of doxycyclin induction
[10] = HT29, 8 days of continuous PML knock down

| Substance | G2 [1] | cell cycle profile (p53 null H1299 cells) | Cdc25C promoter activity (luciferase) (Cdc25C promoter) | endogenous Cdc25C RNA level (Cdc25C RNA) | endogenous cyclin B2 RNA level (cyclin B2 RNA) | Cyclin B2 promoter activity (luciferase) (Cyclin B2 promoter) | expression of major PML isoforms (PML; HT29, doxycycline 72 h) | expression of major PML isoforms (PML; SW480, doxycycline 72 h) | relative number of cells cycling through the S-phase (HT29 cells [7]; [9]) | also measured |
| --- | --- | --- | --- | --- | --- | --- | --- | --- | --- | --- |
| shp53: RNA interference construct to p53, GACTCCAGTGGTAATCTA [reference compound] | striking increase | not disrupted | suppressed | suppression | suppression | suppressed |  |  |  |  |
| shPML1: lentivirus-expressed, doxycycline-inducible short hairpin RNA to PML target sequence GACCAACAACATCTTCTGC |  |  |  |  |  |  | reduced | reduced | comparable | PML transcript level (PML transcript; HT29, RT-PCR normalized to 18 s): reduction; PML transcript level (PML transcript; SW480, RT-PCR normalized to 18 s): reduction; inhibition of colony formation (SW480 cells [2]): > 70%; inhibition of colony formation (HT29 cells [3]): > 90%; cell death (SW480 cells [4]; SW480, 7 or 8 days of PML down regulation): modest increase; number of live cells (SW480 cells [4]; SW480, 7 or 8 days of doxycyclin exposure): significantly reduced; cell death (HT29 cells [5]; HT29, 7 or 8 days of PML down regulation): modest increase; number of live cells (HT29 cells [5]; HT29, 7 or 8 days of doxycyclin exposure): significantly reduced; rate of metabolism (MTT) (HT29 cells [6]): slightly lower; level of G1 (HT29 cells [7]; [9]): slightly higher; level of G2 (HT29 cells [7]; [9]): lower; BrdUrd incorporation into the S-phase (HT29 cells [7]; [10]): reduced markedly; G1 (HT29 cells [7]; [10]): increases; G2 (HT29 cells [7]; [10]): increases |
| arsenic trioxide [As2O3] |  |  |  |  |  |  |  |  |  | IR-induced phosphorylation of p53 on Thr18 [8]: facilitated |
| PML3i: siRNA to PML target sequence GAGTCGGCCGACTTCTGGT (Bruno et al), transfected with Lipofectamine 2000 (listed as DNA, chemistry not given here) | striking increase | not disrupted | reduced | suppression | suppression | reduced |  |  |  | cell death (SKBR3 cells): without significant cell death; live cell numbers (SKBR3 cells): slightly reduced |
| w-shPML1: wobble shPML control sequence GACCAACAATATATTCTGC [reference compound] |  |  |  |  |  |  | failed to reduce PML levels | failed to reduce PML levels | comparable |  |
